Reference: patent US10106501B2, “Nuclear receptor modulators” (AbbVie Inc., priority 2015, dated 2018)
Where two headings read alike, the source gives them in different places.

Target: T1, chimeric human RORγ-Gal4 receptor (Homo sapiens, UniProt P51449)
T1 sequence (P51449 269-508 limits assumed): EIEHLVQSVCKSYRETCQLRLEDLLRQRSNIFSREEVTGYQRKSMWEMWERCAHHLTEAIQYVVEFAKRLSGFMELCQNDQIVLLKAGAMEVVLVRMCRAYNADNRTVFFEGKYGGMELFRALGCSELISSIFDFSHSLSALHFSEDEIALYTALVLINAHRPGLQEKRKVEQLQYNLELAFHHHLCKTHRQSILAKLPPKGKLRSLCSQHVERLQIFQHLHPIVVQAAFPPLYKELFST
Experiment: transient transactivation assay (RORγ-Gal4 luciferase reporter)
Assay type: cell-based
Settings: read-out: IC50

[1] = Cos-7 cells transfected with RORγ-Gal4 and 5Gal4 pGL3 TK Luc reporter, overnight incubation, T0901317 at 10^-5 M as reference

Structure (SMILES)	IC50 [1] [nM]	IC50 [nM]
CC(C)c1ccc2c(ccn2Cc2c(Cl)ccc(C(=O)N3CCC(CC(=O)O)CC3)c2Cl)c1 [EI-1]	< 100	–
Cc1cc(C#N)cc2c1nc(Cc1c(Cl)ccc(C(=O)N3CCC(N(C)C)CC3)c1Cl)n2C [BN-14]	1000 to 10000	–
Cc1cn(C(=O)c2c(Cl)ccc(C(=O)N3CCC(CC(=O)O)CC3)c2Cl)c2c(C)cc(C(F)(F)F)cc12 [DJ, 2-(1-(2,4-dichloro-3-(3,7-dimethyl-5-(trifluoromethyl)-1H-indole-1-carbonyl)benzoyl)piperidin-4-yl)acetic acid]	< 100	–
CSc1ccc2c(ccn2Cc2c(Cl)ccc(C(=O)N3CCC(CC(=O)O)CC3)c2Cl)c1 [EI-2]	< 100	–
COCCC1CCN(C(=O)c2ccc(Cl)c(Cc3nc4c(C)cc(C#N)cc4n3C)c2Cl)CC1 [BN-3]	100 to 500	–
O=C(O)CC1CCN(C(=O)c2ccc(Cl)c(Cn3ccc4cc(C5CC5)cc(F)c43)c2Cl)CC1 [EN, 2-(1-(2,4-dichloro-3-((5-cyclopropyl-7-fluoro-1H-indol-1-yl)methyl)benzoyl)piperidin-4-yl)acetic acid]	< 100	–
Cc1cc(C(F)(F)F)nc2c1cc(C(=O)c1c(Cl)ccc(C(=O)N3CC[C@@H](CC(=O)O)[C@@H](C)C3)c1Cl)n2C.Cc1cc(C(F)(F)F)nc2c1cc(C(=O)c1c(Cl)ccc(C(=O)N3CC[C@@H](CC(=O)O)[C@H](C)C3)c1Cl)n2C.Cc1cc(C(F)(F)F)nc2c1cc(C(=O)c1c(Cl)ccc(C(=O)N3CC[C@H](CC(=O)O)[C@@H](C)C3)c1Cl)n2C.Cc1cc(C(F)(F)F)nc2c1cc(C(=O)c1c(Cl)ccc(C(=O)N3CC[C@H](CC(=O)O)[C@H](C)C3)c1Cl)n2C [Example GA]	–	< 100
Cn1c(Cc2c(Cl)ccc(C(=O)N3CCOCC3)c2Cl)cc2c(Cl)cc(Cl)cc21 [EZ, (2,4-dichloro-3-((4,6-dichloro-1-methyl-1H-indol-2-yl)methyl)phenyl)(morpholino)methanone]	< 100	–
Cc1cc(C#N)cc2c1nc(Cc1c(Cl)ccc(C(=O)N3CCOCC3)c1Cl)n2C(C)C [CH, 2-(2,6-dichloro-3-(morpholine-4-carbonyl)benzyl)-1-isopropyl-4-methyl-1H-benzo[d]imidazole-6-carbonitrile]	< 100	–
Cc1cc(C#N)cc2c1cc(Cc1c(Cl)cnc(C(=O)N3CCN(C4COC4)CC3)c1Cl)n2C [BF-4]	100 to 500	–
Cc1cc(C(F)(F)F)nn2c(C)c(Cc3c(Cl)ccc(C(=O)N4CCN(C5COC5)CC4)c3Cl)nc12 [CZ-1]	100 to 500	–
Cc1ccc(C(=O)N2CCOCC2)c(C)c1Cc1nc2c(C)cc(Br)cc2n1C [Example BR, (3-((6-bromo-1,4-dimethyl-1H-benzo[d]imidazol-2-yl)methyl)-2,4-dimethylphenyl)(morpholino)methanone]	100 to 500	–
Cc1cn(C(=O)c2c(Cl)ccc(C(=O)N3CCC(CC(=O)O)CC3)c2Cl)c2c(C)nc(C(F)(F)F)cc12 [EV, 2-(1-(2,4-dichloro-3-(3,7-dimethyl-5-(trifluoromethyl)-1H-pyrrolo[2,3-c]pyridine-1-carbonyl)benzoyl)piperidin-4-yl)acetic acid]	< 100	–
O=C(O)CC1CCN(C(=O)c2ccc(Cl)c(Cn3ccc4cc(OC(F)(F)F)ccc43)c2Cl)CC1 [EI, 2-(1-(2,4-dichloro-3-((5-(trifluoromethoxy)-1H-indol-1-yl)methyl)benzoyl)piperidin-4-yl)acetic acid]	< 100	–
Cc1cc(C(F)(F)F)cc2c1nc(Cc1c(Cl)ccc(CN3CCC(CCO)CC3)c1Cl)n2C [BW-11]	100 to 500	–
O=C(O)CC1CCN(C(=O)c2ccc(Cl)c(C(=O)n3ccc4cc(C5CC5)cc(F)c43)c2Cl)CC1 [EO, 2-(1-(2,4-dichloro-3-(5-cyclopropyl-7-fluoro-1H-indole-1-carbonyl)benzoyl)piperidin-4-yl)acetic acid]	< 100	–
Cc1cn(Cc2c(Cl)ccc(C(=O)N3CCC(CC(=O)O)CC3)c2Cl)c2c(C)cc(OC(F)(F)F)cc12 [EG, 2-[1-[2,4-dichloro-3-[[3,7-dimethyl-5-(trifluoromethoxy)-1H-indol-1-yl]methyl]benzoyl]-4-piperidyl]acetic acid]	< 100	–
Cc1cc(C#N)cc2c1cc(Cc1c(Cl)ccc(O[C@H]3CC[C@@H](C(=O)O)CC3)c1Cl)n2C [Example AF1, cis-4-(2,4-dichloro-3-((6-cyano-1,4-dimethyl-1H-indol-2-yl)methyl)phenoxy)cyclohexanecarboxylic acid]	500 to 1000	–
Cc1cc(C(F)(F)F)nc2c1nc(Cc1c(Cl)ccc(C(=O)N3CCOCC3)c1Cl)n2C [DC, (2,4-dichloro-3-((3,7-dimethyl-5-(trifluoromethyl)-3H-imidazo[4,5-b]pyridin-2-yl)methyl)phenyl)(morpholino)methanone]	1000 to 10000	–
Cc1cc(C(F)(F)F)nc2c1cc(C(=O)c1c(Cl)ccc(C(=O)N3CCC(C#N)CC3)c1Cl)n2C [Example FV, 1-(2,4-dichloro-3-(1,4-dimethyl-6-(trifluoromethyl)-1H-pyrrolo[2,3-b]pyridine-2-carbonyl)benzoyl)piperidine-4-carbonitrile]	< 100	–

More lines, main results first:

IC50 [1] [nM]	Structure (SMILES)	IC50 [nM]
< 100	Cc1cc(C(F)(F)F)cc2occ(Cc3c(Cl)ccc(C(=O)N4CCC(CC(=O)O)CC4)c3Cl)c12 [DZ, 2-(1-(2,4-dichloro-3-((4-methyl-6-(trifluoromethyl)benzofuran-3-yl)methyl)benzoyl)piperidin-4-yl)acetic acid]	–
< 100	Cc1cc(C(F)(F)F)cc2c1nc(Cc1c(Cl)ccc(C(=O)N3CCC(CC(=O)O)CC3)c1Cl)n2C [Example BU, 2-(1-(2,4-dichloro-3-((1,4-dimethyl-6-(trifluoromethyl)-1H-benzo[d]imidazol-2-yl)methyl)benzoyl)piperidin-4-yl)acetic acid]	–
100 to 500	Cc1cc(C(F)(F)F)cc2c1cc(Cc1c(Cl)ccc(C(=O)N3CCN(C(C)(C)C(=O)O)CC3)c1Cl)n2C [Example T, 2-(4-(2,4-dichloro-3-((1,4-dimethyl-6-(trifluoromethyl)-1H-indol-2-yl)methyl)benzoyl)piperazin-1-yl)-2-methylpropanoic acid]	–
1000 to 10000	CNC(=O)[C@@H]1CCCN1C(=O)c1ccc(Cl)c(Cc2nc3c(C)cc(C(F)(F)F)cc3n2C)c1Cl [BJ-1]	–
< 100	Cc1cc(C(F)(F)F)cc2c1cc(C(=O)c1c(Cl)ccc(C(=O)N3CC[C@@H](C(=O)O)[C@@H](C)C3)c1Cl)n2C [AQ-5]	–
< 100	Cc1cc(C(F)(F)F)cc2c1c(Cc1c(Cl)ccc(C(=O)N3CCC(CC(=O)O)CC3)c1Cl)nn2C [EE, 2-(1-(2,4-dichloro-3-((1,4-dimethyl-6-(trifluoromethyl)-1H-indazol-3-yl)methyl)benzoyl)piperidin-4-yl)acetic acid]	–
< 100	Cc1cc(C(F)(F)F)cc2c1cc(Cc1c(Cl)ccc(C(=O)N3CC4(CC(C(=O)O)C4)C3)c1Cl)n2C [Example B-18]	–
1000 to 10000	Cc1cc(C(F)(F)F)cc2c1cc(Cc1c(Cl)ccc(C(=O)N3CCC(O)C(C(=O)O)C3)c1Cl)n2C (stereo not drawn) [Example B-10]	–
< 100	Cc1cc(C(F)(F)F)cc2c1cc(Cc1c(Cl)ccc(C(=O)N3CCN(C(C)C(=O)O)CC3)c1Cl)n2C (stereo not drawn) [Example U, 2-(4-(2,4-dichloro-3-((1,4-dimethyl-6-(trifluoromethyl)-1H-indol-2-yl)methyl)benzoyl)piperazin-1-yl)propanoic acid]	–
< 100	Cc1cn(C(=O)c2c(Cl)ccc(C(=O)N3CC[C@H](C(=O)O)[C@H](C)C3)c2Cl)c2c(C)cc(C(F)(F)F)cc12 [DJ1-2]	–
< 100	Cc1cc(C(F)(F)F)cc2c1cc(Cc1c(Cl)ncc(C(=O)N3CCC(CC(=O)O)CC3)c1Cl)n2C [Example B-22]	–
< 100	Cc1cc(C(F)(F)F)cc2c1cc(Cc1c(Cl)ccc(C(=O)N3CC4(CC(CC(=O)O)C4)C3)c1Cl)n2C [Example B-17]	–
< 100	Cc1cc(OC(F)(F)F)cc2c1cc(Cc1c(Cl)ccc(C(=O)N3CC[C@H](C(=O)O)[C@H](C)C3)c1Cl)n2C [DP-2, (3S,4S)-1-(2,4-dichloro-3-((1,4-dimethyl-6-(trifluoromethoxy)-1H-indol-2-yl)methyl)benzoyl)-3-methylpiperidine-4-carboxylic acid]	–
< 100	Cc1cc(C(F)(F)F)cc2c1c(Cc1c(Cl)ccc(C(=O)N3C[C@@H]4[C@H](C3)[C@H]4C(=O)O)c1Cl)cn2C [Example F1-1]	–
100 to 500	CC(=O)N1CCN(C(=O)c2ccc(Cl)c(Cc3cc4ccc(C(F)(F)F)cc4n3C)c2Cl)CC1 [Example L-3]	–
< 100	Cc1cc(C(F)(F)F)cc2c1cc(Cc1c(Cl)ccc(C(=O)N[C@H]3CC[C@@H](C(=O)O)CC3)c1Cl)n2C [Example B-25]	–
< 100	Cc1cc(C(F)(F)F)cc2c1cc(Cc1c(Cl)ccc(C(=O)N3CCN(C4CC(C(=O)O)C4)CC3)c1Cl)n2C (stereo not drawn) [Example S, 3-(4-(2,4-dichloro-3-((1,4-dimethyl-6-(trifluoromethyl)-1H-indol-2-yl)methyl)benzoyl)piperazin-1-yl)cyclobutanecarboxylic acid]	–
< 100	C[C@H]1CN(C(=O)c2ccc(Cl)c(Cc3cc4c(F)cc(C(F)(F)F)cc4n3C)c2Cl)CC[C@H]1C(=O)O [FE-4]	–
> 10000	Cc1cc(C(F)(F)F)cn2c(C)c(Cc3c(Cl)ccc(C(=O)N4CCC(O)C4)c3Cl)nc12 (stereo not drawn) [CT-4]	–
< 100	Cc1nc(C(F)(F)F)cc2c1cc(Cc1c(Cl)ccc(C(=O)N3CCN(C4COC4)CC3)c1Cl)n2C [Example FJ, (2,4-dichloro-3-((1,4-dimethyl-6-(trifluoromethyl)-1H-pyrrolo[3,2-c]pyridin-2-yl)methyl)phenyl)(4-(oxetan-3-yl)piperazin-1-yl)methanone]	–
< 100	CC1CN(C(=O)c2ccc(Cl)c(Cc3cc4ccc(OC(F)(F)F)cc4n3C)c2Cl)CCC1C(=O)O (stereo not drawn) [FI-2]	–
100 to 500	Cc1cc(C(F)(F)F)cc2c1nc(Cc1c(Cl)ccc(C(=O)N3CCC(CCO)CC3)c1Cl)n2C [BJ-16]	–
